Source: article PMC9398908, “GLP-1-mediated delivery of tesaglitazar improves obesity and glucose metabolism in male mice” (Nature Metabolism, 2022)
“And” between values parts separate entries of the source, which are not always exact repeats. Identical values can stand only once.

What was measured:
[1] = target: T1, hGLP-1R (Homo sapiens, UniProt P43220); assay: Ligand-induced cAMP production (CAMYEL BRET sensor) in hGLP-1R+ HEK293T cells; format: cell-based; conditions: HEK293 cells transfected with human GLP-1R; dose response, Fig. 1b; in words
T1 construct: host or cells: HEK293T, transient transfection
Protocol: (§1) HEK293T cells (700,000 per well) were seeded in six-well plates and incubated to 70% confluency in DMEM (10% FBS, 1% Pen/Strep). Twenty-four hours following seeding, transient transfections were performed using Lipofectamine 2000 (catalogue no. 11668019, Invitrogen) according to the manufacturer’s protocol without including additional transformation carrier DNA.
(§2) Twenty-four hours following transfection, HEK293T cells or MIN6 cells were washed with PBS and resuspended in FluoroBrite phenol red-free complete media (catalogue no. A1896701, Life Technologies) containing 5% FBS and 2 mM of L-glutamine (catalogue no. 25030081, Life Technologies). 100,000 cells per well were plated into poly-D-lysine-coated (catalogue no. P6403, Sigma-Aldrich) 96-well white polystyrene LumiNunc plates (catalogue no. 10072151, Thermo Fisher Scientific). After 24 h, the media was replaced with PBS (catalogue no. 10010056, Gibco) containing 10 μM of coelenterazine-h (catalogue no. S2011, Promega) or 1:500 dilution of NanoGlo (catalogue no. N1110, Promega). BRET measurements were taken every 30 s–2 min using a PHERAstar FS multi-mode microplate reader. […] The resulting ligand-specific ratiometric BRET signals were normalized to vehicle producing the ‘ligand-induced BRET ratio’[37], followed by an additional normalization step to well-specific baseline readings.

[2] = target: T1, hGLP-1R; assay: Ligand-induced hGLP-1R-GFP Mini-Gαs recruitment (BRET) in mouse MIN6 β-cells; format: cell-based; conditions: Fig. 1d, in words
Protocol: as §1, §2

[3] = system: hGLP-1R; assay: Ligand-induced cAMP production (BRET) in mouse MIN6 β-cells; format: cell-based, human; conditions: Fig. 1e, in words
Protocol: as §1, §2

[4] = target: T1, hGLP-1R; assay: hGLP-1R-Rluc8 co-localization with lysosome marker Lamp1-mNeonGreen (BRET) in HEK293T cells; format: cell-based; conditions: HEK293 cells; Fig. 1g; in words
Protocol: as §1, §2

[5] = system: C57BL/6J DIO mice; assay: Fasting blood glucose, insulin and HOMA-IR in DIO mice (Fig. 2e,f; Extended Data Fig. 3c); format: in vivo, mouse; conditions: for HOMA IR: Suppl. Fig. 3c
Protocol: (§3) Glp1r^−/− mice were kindly provided by D. Drucker (University of Toronto, Canada). All wildtype and knockout mice used in our studies were in-house bred on a C57BL/6J background. Mice were double-housed and kept in a constant environment with the ambient temperature set to 22 ± 2 °C with constant humidity (45–65%) and a 12 h/12 h light/dark cycle with lights off from 06:00 until 18:00. For studies in DIO mice, male C57BL/6J mice were fed with a high-fat diet comprising 58% kilocalories from fat (D12331, Research Diets). db/db mice were fed with a normal chow diet (T1314, Altromin GmbH) throughout the study. At the beginning of each experiment, mice were equally distributed into experimental groups according to their body weight and body composition. All animal studies were approved by the State of Bavaria, Germany, or the Insitutional Animal Care and Use Committee of the University of Cincinnati, OH, USA and conducted on the basis of the underlying animal welfare law of the respective countries. Compounds were dissolved in PBS and were s.c. administered with a volume of 5 μl g^−1 body weight in the indicated doses between 15:00 and 16:00.

[6] = system: Fabp4, Plin2, Arntl, Sema3c; assay: PPAR target gene expression in liver (Fabp4, Plin2) and skeletal muscle (Arntl, Sema3c) of DIO mice (Fig. 2j–m); format: in vivo, mouse
Protocol: For assessment of acute drug effects, animals were treated with the respective compounds 4 h before tissue harvesting. Dissected tissues were frozen immediately on dry ice, and RNA was isolated using RNeasy Mini Kits (Qiagen). mRNA levels were determined using TaqMan probes for fatty acid binding protein 4 (Fabp4, Mm00445878_m1), perilipin-2 (Plin2, Mm00475794_m1), aryl hydrocarbon receptor nuclear translocator-like protein 1 (Arntl, Mm00500223_m), semaphorin 3 C (Sema3c, Mm00443121_m1) and hypoxanthine phosphoribosyltransferase 1 (Hprt, Mm03024075_m1) in custom-made low density array cards (Thermo Fisher) or in single assays on a QuantStudio 7 Real-Time PCR system. Target gene expression was normalized to HPRT and fold change was calculated relative to vehicle-treated controls.

[7] = system: lean C57BL/6J mice; assay: 14-day treatment of lean mice: body weight, plasma cholesterol, triglycerides, AST, ALT, heart weight (Fig. 2n–s); format: in vivo, mouse; design: Cholesterol / TAG: unit not given here
Protocol: as §3

[8] = system: DIO mice; assay: Acute i.p. glucose tolerance test in DIO mice 6 h after a single s.c. dose (Fig. 3); format: in vivo, mouse; design: AOC: unit not given here; conditions: for AOC: AOC of i.p. GTT, DIO mice, 6 h after single s.c. dose, individual animals
Protocol: as §3
(§4) Glucose tolerance was assessed in 6 h fasted mice after i.p injection of 1.75 g glucose per kg body weight (DIO mice). Insulin tolerance was assessed in 6 h fasted mice after i.p. injection of either 0.75 U Insulin per […] body weight (DIO mice) or 1 U Insulin per […] body weight (db/db mice) (Humalog, Eli Lilly). Tail vein blood glucose was subsequently measured using a handheld glucometer (TheraSense Freestyle) at baseline and after 15, 30, 60 and 120 min.

[9] = system: db/db mice; assay: 4-day treatment of obese db/db mice (50 nmol/kg/day): body weight, food intake, glucose, tolerance test (Fig. 6); format: in vivo, mouse; design: blood glucose (legend: change in blood glucose) / AOC: unit not given here; conditions: 4 days, 50 nmol kg−1 per day, individual mice
Protocol: as §3, §4

T1 sequence (P43220 24-463): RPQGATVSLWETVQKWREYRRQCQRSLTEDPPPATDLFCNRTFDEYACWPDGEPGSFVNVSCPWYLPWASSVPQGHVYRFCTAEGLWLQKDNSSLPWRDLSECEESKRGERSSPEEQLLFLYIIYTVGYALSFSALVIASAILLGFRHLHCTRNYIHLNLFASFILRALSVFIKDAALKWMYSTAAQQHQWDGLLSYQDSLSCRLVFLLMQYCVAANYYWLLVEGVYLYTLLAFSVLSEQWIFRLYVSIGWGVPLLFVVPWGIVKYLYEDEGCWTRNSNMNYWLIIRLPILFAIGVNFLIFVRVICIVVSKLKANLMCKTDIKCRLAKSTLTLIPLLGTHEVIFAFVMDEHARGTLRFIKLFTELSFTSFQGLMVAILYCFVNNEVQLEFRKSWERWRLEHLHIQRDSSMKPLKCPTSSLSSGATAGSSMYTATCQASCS

CCO[C@@H](Cc1ccc(OCCc2ccc(OS(C)(=O)=O)cc2)cc1)C(=O)O [tesaglitazar, (S)-2-ethoxy-3-(4-(4-((methylsulfonyl)oxy)phenethoxy)phenyl) propanoic acid]
cAMP production [1]: had no effect
GLP-1R-mediated Gαs recruitment [2]: had no effect
cAMP production [3]: had no effect
lysosomal GLP-1R appearance (GLP-1R-Lamp1 colocalization) [4]: had no effect
blood glucose ([5]; DIO mice, Figure 2e, individual mice): 110 mg/dL and 133 mg/dL and 143 mg/dL and 112 mg/dL and 107 mg/dL and 150 mg/dL and 108 mg/dL
insulin ([5]; DIO mice, Figure 2f, individual mice): 1.06 ng/mL and 1.72 ng/mL and 0.73 ng/mL and 1.32 ng/mL and 2.56 ng/mL and 2.63 ng/mL and 1.88 ng/mL and 1.65 ng/mL
HOMA IR ([5]; animal 1 of the group): 9.08
HOMA IR ([5]; animal 2 of the group): 17.60
HOMA IR ([5]; animal 3 of the group): 17.24
HOMA IR ([5]; animal 4 of the group): 17.30
HOMA IR ([5]; animal 5 of the group): 10.92
HOMA IR ([5]; animal 6 of the group): 7.15
HOMA IR ([5]; animal 7 of the group): 14.05
HOMA IR ([5]; animal 8 of the group): 6.44
expression of known PPAR target genes in liver (Fabp4, Plin2) and skeletal muscle (Arntl, Sema3c) ([6]; 30-week-old male DIO mice, 3 days, 50 nmol kg−1 per day, Fig. 2j–m, in words): induced expression of known PPAR target genes
Fabp4 ([6]; DIO mice, Figure 2j, gene expression in liver, individual mice): 8.80 and 6.98 and 3.76 and 4.88 and 3.64 and 11.43 and 6.16 and 1.27
Plin2 ([6]; DIO mice, Figure 2k, gene expression in liver, individual mice): 1.24 and 1.51 and 1.57 and 2.00 and 1.99 and 2.32 and 2.01 and 1.45
Arntl ([6]; DIO mice, Figure 2l, gene expression in skeletal muscle, individual mice, sheet notes an outlier based on grubbs test): 1.55 and 1.75 and 2.01 and 1.16 and 1.39 and 1.34 and 1.60 and 1.28
Sema3c ([6]; DIO mice, Figure 2m, gene expression in skeletal muscle, individual mice, sheet notes an outlier based on grubbs test): 1.70 and 1.69 and 1.38 and 1.05 and 1.02 and 1.72 and 1.95 and 2.14
Heart weight/Tibia ([7]; 14-day treatment, individual animals (Fig. 2s)): 88.25 and 101.20 and 133.32 and 102.79 and 98.68 and 111.28 and 98.00 and 103.11
plasma cholesterol levels ([7]; 14 days, 50 nmol kg−1 per day, Fig. 2o, in words): reduced plasma cholesterol levels
TAG ([7]; plasma triglycerides, 14-day treatment, individual animals (Fig. 2p)): 28.51 and 67.33 and 61.82 and 37.82 and 28.64 and 34.88 and 35.62 and 62.31
Cholesterol ([7]; plasma, 14-day treatment, individual animals (Fig. 2o)): 68.85 and 109.93 and 69.31 and 90.92 and 65.38 and 84.58 and 89.99 and 80.51
ALT ([7]; plasma, 14-day treatment, individual animals (Fig. 2q), in U/L (unit assumed)): 7.51 and 24.40 and 11.85 and 4.07 and 8.93 and 10.70 and 5.04 and 14.23
AST ([7]; plasma, 14-day treatment, individual animals (Fig. 2r), in U/L (unit assumed)): 11.14 and 10.87 and 31.82 and 15.56 and 14.94 and 16.00 and 16.09 and 19.09
AOC ([8]; 10 nmol/kg): 602.5 and 1138 and 938 and 739 and 687.5 and 514.5 and 579.5 and 713.5
AOC ([8]; 100 nmol/kg): 808 and 562 and 500.5 and 764.5 and 734.5 and 596.5 and 539.5 and 745.5
i.p. glucose tolerance ([8]; weight-matched DIO mice, single bolus 10 and 100 nmol kg−1, GTT 6 h after dose, Fig. 3a,b, in words): acutely worsened i.p. glucose tolerance
blood glucose (plasma glucose) ([9]; Fig. 6c): 482 and 462 and 314 and 500 and 452 and 446
AOC ([9]; Fig. 6f, baseline-corrected): 9 and 124.5 and 63.27 and 252.8 and 257.2 and 64
blood glucose (legend: change in blood glucose) ([9]; Fig. 6d): 33 and 120 and -49 and 69 and 52 and 7
